According to patent publication US20220387635A1, “PET IMAGING OF CANCEROUS CELLS USING 18F-FLUOROACETATE” (priority 2019, published 2022):
Entries after “also recorded” stand apart in the source; their conditions may differ.

What was measured:
[1] = tested on: NALM-6 tumor within the central nervous system; assay: Dynamic PET time-activity curve in brain and spinal cord; assay type: in vivo, mouse; conditions: 1-hour dynamic PET; NALM-6 tumor-bearing (LMD) vs normal mice
From the text: Time-activity curve of [^18F]-fluoroacetate biodistribution within the brain and spinal cord. A dynamic PET scan was used to determine the time-dependent distribution [^18F]-fluoroacetate within regions-of-interest (ROI) in the brains and spinal cords of normal (control) and NALM-6 tumor-bearing (LMD) mice.

NALM-6 ALL cells = assay: In vitro radiotracer uptake in NALM-6 cells; assay type: cell-based; conditions: for Uptake rate: normalized to [14C]-thymidine, Example 1; for Uptake rate (slope of linear trendline of cell:media ratio): uptake measured at 30, 60, 120 min, FIG. 1 legend
Protocol: Cell uptake studies were performed in the presence of [^3H]-flouroacetate, [^3H]-glucose, and [^14C]-thymidine. Uptake levels were measure at 30, 60, and 120-minute intervals and expressed as a ratio of cellular retention versus concentration in surrounding media (cell:media ratio). Uptake rates were determined as a function of the slope of linear trendline. [^3H]-flouroacetate uptake rates were higher (dotted line; 0.053 min^−1) compared to glucose (dashed line; 0.028 min-1) and thymidine (solid line; 0.024 min^−1).
In vitro uptake of [^3H]-FA, [^3H]-glucose, and [^14C]-thymidine. Radiotracer uptake studies were performed as described previously (Najjar et al., 2009). Briefly, 10^7 NALM-6 were suspended in 6 mL of RPMI medium containing 10% FBS, [^14C]thymidine (0.01 μCi/mL; Moravek, Brea, Calif., USA) and [^3H]-fluoroacetate (0.1 μCi/mL; Moravek) or [^14C]thymidine (0.01 μCi/mL and [^3H]-glucose (2.5 μCi/mL). At time intervals of 30, 60, and 120 minutes, 1 mL aliquots were removed and the cells were pelleted in pre-weighed vials. A […], aliquot of the supernatant was transferred to a pre-weighed scintillation tube. The pellets were weighed following removal of the remainder of the media and thoroughly resuspended in 0.1 mL of Soluene-350 (Perkin-Elmer, Boston, Mass.). Radioactive beta emissions of the media and cell pellets were measured within pre-calibrated energy ranges using a Packard Tri-Carb 3100TR scintillation counter to quantitate [^3H]-FA, [^3H]-glucose, and [^14C]-thymidine uptake. The activity accumulation ratios of the cell pellets to the media ([disintegrations per minute/g cells]/[disintegrations per minute/g media]) were then determined and plotted.
Accordingly, in vitro radiotracer uptake studies were performed to determine the metabolic preference of NALM-6 cells for uptake and retention of fluoroacetate and glucose. The accumulation [^3H]-fluoroacetate and [^3H]-glucose was measured and compared separate experiments (FIG. 1). Uptake levels were normalized to [^14C]-thymidine levels for direct comparison. […] The rates of [^3H]-glucose and [^14C]-thymidine were more closely matched at 0.028 and 0.024 min^−1, respectively.

SMILES	Time-dependent distribution in brain and spinal cord ROI (time-activity curve) [1]	Uptake rate (NALM-6 ALL cells) [min⁻¹]	Uptake rate (slope of linear trendline of cell:media ratio) (NALM-6 ALL cells) [min⁻¹]	Uptake rate relative to [3H]-glucose (NALM-6 ALL cells)
O=C(O)C[18F] [[^18F]-fluoroacetate, ^18F-fluoroacetate]	preferential accumulation of the radiotracer in regions of NALM-6 tumor within the central nervous system; also recorded: higher baseline levels			
Cc1cn([C@H]2C[C@H](O)[C@@H](CO)O2)c(=O)[nH]c1=O [[^14C]-thymidine]		0.024	0.024	
OC[C@H]1OC(O)[C@H](O)[C@@H](O)[C@@H]1O (some centres unmarked) [[^3H]-glucose]		0.028	0.028	
[3H]C(F)C(=O)O (centres unmarked) [[^3H]-fluoroacetate]		0.056	0.053	nearly twice the rate
